“And” between values parts separate entries of the source, which are not always exact repeats. Equal values may be shown once. Read-outs that look alike come from different tables or passages of the source.
Tests used:
Puccinia recondita = conditions: Puccinia recondita, in Triticum aestivum, 168 h, read-out: Preventive value
Protocol: Test plants (variety: Nourin 61 gou) were sowed and grown until two leaves stage.
D-Tagatose and fungicide were diluted to 10000 ppm and the concentration listed in table 19, respectively, with distilled water, and 10 ml of the dilution was sprayed thoroughly on the plants. Three days after the spraying of the dilution, the plants were inoculated with Puccinia recondita containing 1×10^3/ml and then put for 16 hours in an inoculation chamber (20° C. to 23° C.) to promote disease. Seven days after inoculation the disease severity of the test plants was observed and the effectiveness of test sample was judged.

[1] = tested on: Pseudoperonospora cubensis; assay: cucumber downy mildew, pot test: curative effect
Protocol: Test plants (cucumber, variety: Sagami hanpaku) were seeded and grown until the one true leaf stage. And then a sporangium suspension of Pseudoperonospora cubensis containing 1×10^3/ml were sprayed on the back side of the leaves of test plants for inoculation and then the plants were put for 16 hours in an inoculation chamber (20° C. to 23° C.) to promote disease. For a curative test, the inoculated plants as described above were used.
D-Tagatose was diluted to 5%, 1% and 0.5% with distilled water and then 10 ml of the dilution was sprayed on the test plant. Seven days after the spraying of D-tagatose the disease severity of the test plants was observed and the effectiveness of test sample was judged. Tests were carried out using two plants for each test set and the disease severity of the test plants was judged. The control value was calculated from the degree of disease severity as in Example 1.

[2] = tested on: Pseudoperonospora cubensis; assay: cucumber downy mildew, field trial; type: in vivo; conditions: for D.D.S (Degree of disease severity), Av / P.V. (Preventive value), Av / n/N × 100, Av: average of plots; for D.D.S (Degree of disease severity) / P.V. (Preventive value) / n/N × 100 / Disease severity 0: number of leaves / Disease severity 1: number of leaves / Disease severity 2: number of leaves / Disease severity 3: number of leaves / Disease severity 4: number of leaves: per plot (a, b); for Disease severity 0: number of leaves / Disease severity 1: number of leaves / Disease severity 2: number of leaves / Disease severity 3: number of leaves / Disease severity 4: number of leaves: 50 leaves
Phytophthora infestans [3] = type: in vivo; conditions: for Preventive value: inoculated 3 days after spraying
Pythium aphanidermatum = conditions: for Preventive value: 10 ml soil drench, from germination rate after 2 weeks
Protocol: Five seeds of test plants (cucumber, variety: Sagami hanpaku) were sowed in a pot (5×5 cm), which contains infested soil with Pythium aphanidermatum (mycelium 100 g/1 L soil) and the seeds were covered with the soil. […] After 2 weeks, the disease severity of the test plants was observed and the effectiveness of test sample was judged. Tests were carried out in triplicate using 5 plants for each test set and the preventive value was calculated from the germination rate.

Phytophthora infestans [4] = assay: whole plant or invertebrate; type: in vivo; conditions: Phytophthora infestans, in Solanum lycopersicum, 168 h, read-out: Preventive value
[5] = tested on: Pseudoperonospora cubensis; conditions: Pseudoperonospora cubensis, in Cucumis sativus, 168 h, read-out: Preventive value
Protocol: Test plants (cucumber, variety: Sagami hanpaku) were seeded and grown until the one true leaf stage. D-Tagatose was diluted to 5000 ppm and the fungicides were diluted to the concentrations listed in table 14, with distilled water. And then 10 ml of the dilution was sprayed on the test plant. Three days after spraying of the solution, a sporangium suspension of Pseudoperonospora cubensis containing 1×10^3/ml were inoculated by spraying on test plants and then put for 16 hours in an inoculation chamber (20° C. to 23° C.) to promote disease. Seven days after inoculation the disease severity of the test plants was observed and the effectiveness of the test sample was judged. Tests were carried out using two plants for each test set and the disease severity of the test plants was judged in accordance with the following criteria. The preventive value was calculated from the degree of disease severity.
(§1) 0 (No lesion) 1 (Lesion area was not more than 40%) 2 ((Lesion area was 40%-80%) 3 (Lesion area was not less than 80%)
Preventive value=100{1−(n/N)} N=disease severity of untreated leaf, n=disease severity of the test leaf Synergistic effect was determined by Colby's equation.

[6] = tested on: Pseudoperonospora cubensis; conditions: alone
Protocol: Test plants (cucumber, variety: Sagami hanpaku) were seeded and grown until the one true leaf stage. D-tagatose alone was diluted to 5%, 1%, 0.5% and 0.1%, and the combination of D-tagatose and other saccharide were diluted to be 0.5% and 0.5% solution respectively with distilled water, and then 10 ml of the dilution was sprayed on the test plant. Three days after spraying of the solution, a sporangium suspension of Pseudoperonospora cubensis containing 1×10^3/ml were inoculated by spraying on test plants and then put them for 16 hours in an inoculation chamber (20° C. to 23° C.) to promote disease. Seven days after inoculation the disease severity of the test plants was observed and the effectiveness of test sample was judged. Tests were carried out using two plants for each test set and the disease severity of the test plants was judged in accordance with the following criteria. The preventive value was calculated from the degree of disease severity as in example 1.
Synergistic effect was determined by the Colby's equation below.
X is the observed effect, in percentage, of the first active ingredient and, and Y is the observed effect, in percentage, of the second active ingredient. E is the effect, in percentage, of the mixture expected from additive contribution of the individual components.

Sphaerotheca fuligine = assay: cucumber powdery mildew, pot test: preventive effect; conditions: for Preventive value: inoculated 3 days after spraying
Protocol: Test plants (cucumber, variety: Sagami-hanpaku) were seeded and grown until the one true leaf stage. D-tagatose was diluted to 5% and 1% with distilled water and then 10 ml of the dilution was sprayed on the test plant. Three days after spraying, a condia suspension of Sphaerotheca fuligine was inoculated by spraying on test plants. Seven days after inoculation the disease severity of the test plants was observed and the effectiveness of test sample was judged. Tests were carried out using two plants for each test set and the disease severity of the test plants was judged in accordance with the following criteria.

Pyricularia oryze = assay: whole plant or invertebrate; type: in vivo; conditions: Pyricularia, in Oryza sativa, 168 h, read-out: Preventive value
Botrytis cinerea = conditions: Botrytis cinerea, in Solanum lycopersicum, 168 h, read-out: Preventive value
Protocol: Test plants (tomato, variety: Ogata-fukujyu) were seeded and grown until the three leaf stage. D-Tagatose and fungicide were diluted to 10000 ppm and the concentrations liste in table 23, respectively, with distilled water and 10 ml of the dilution was sprayed on the plants. Three days after spraying the solution, condia suspension of Botrytis cinerea were inoculated by spraying on test plants and then put for 16 hours in an inoculation chamber (20° C. to 23° C.) to promote disease. Seven days after inoculation, the disease severity of the test plants was observed and the effectiveness of test sample was judged.

[7] = tested on: Erysiphe graminis f.sp. hordei; conditions: Blumeria graminis, in Hordeum vulgare, 168 h, read-out: Preventive value
Protocol: Test plants (barley, variety: Akashinriki) were seeded and grown until the one leaf stage. D-tagatose and fungicide were diluted to 5000 ppm and the concentrations listed in table 21, respectively, with distilled water and 10 ml of the dilution was sprayed thoroughly on the plants. Three days after spraying, a condia suspension of Erysiphe graminis f.sp. hordei was inoculated by spraying on test plants. 7 days after inoculation the disease severity of the test plants was observed and the effectiveness of test sample was judged.

[8] = tested on: Pseudoperonospora cubensis; conditions: Pseudoperonospora cubensis, in Cucumis sativus, 168 h, read-out: Preventive value; remark: listed apart in the source
Protocol: Test plants (cucumber, variety: Sagami hanpaku) were seeded and grown until the one true leaf stage. And then, a sporangium suspension of Pseudoperonospora cubensis containing 1×10^3/ml were spraying for inoculation on the back side of the leaves of test plants and then put for 16 hours in an inoculation chamber (20° C. to 23° C.) to promote disease. For a curative test, the inoculated plants as described above were used.
D-Tagatose was diluted to 5000 ppm and the fungicides were diluted to the concentrations listed in table 15, with distilled water, and 10 ml of the dilution was sprayed. Seven days after inoculation the disease severity of the test plants was observed and the effectiveness of test sample was judged.

Pythium glaminicola = conditions: for Preventive value: 10 ml soil drench, from percentage of onset area after 2 weeks
Protocol: Four germinated rice seeds (variety: Koshihikari) were sowed in a pot (5×5 cm), which contains infected soil with Pythium glaminicola (mycelium 100 g/1 L soil). The pot was drenched with 10 ml of D-tagatose dilution and the seeds were covered with soil. After 2 weeks, the disease severity of the test plants per rice seedling in 25 cm^2 was observed and the effectiveness of test sample was judged. Tests were carried out in duplicate and the preventive value was calculated from percentage of onset area.

Plasmopara viticola = assay: vine downy mildew, field test; conditions: for D.D.S (Degree of disease severity), Av / P.V. (Preventive value), Av / n/N × 100, Av: average of plots
Protocol: Test plants (variety: kyoho) were grown until approximately 10 leaves. […] After the first spraying of the dilution, grape leaves were infected by spraying a sporangium suspension of Plasmopara viticola containing 1×10^3/ml. The disease severity of the test plants was observed 7 days after last spraying, and the effectiveness of test sample was judged. Tests were carried out in triplicate using half of the test plant per each test. The disease severity of the test plants was judged in accordance with the following criteria. The preventive value was calculated from the degree of disease severity.
(§2) 0 (No lesion) 1 (Lesion area was not more than 5% of the leaf area) 2 ((Lesion area was 5%-25% of the leaf area) 3 (Lesion area was 25%-50% of the leaf area) 4 (Lesion area was not less than 50% of the leaf area)

[9] = tested on: Pseudoperonospora cubensis; conditions: for Preventive value: 5 ml soil drench, inoculated 5 days after drenching
Protocol: Test plants (cucumber, variety: Sagami hanpaku) were seeded and grown until the one true leaf stage. D-Tagatose was diluted to 5% and 1% with distilled water and then 5 ml of the dilution was drenched into the soil of the pot. Five days after drenching, a sporangium suspension of Pseudoperonospora cubensis containing 1×10^3/ml were noculated by spraying on the test plants and then put them for 16 hours in an inoculation chamber (20° C. to 23° C.) to promote disease. Seven days after inoculation the disease severity of the test plants was observed and the effectiveness of test sample was judged. Tests were carried out using two plants for each test set and the disease severity of the test plants was judged. The preventive value was calculated from the degree of disease severity as in Example 1.

Sphaerotheca fuliginea = assay: cucumber powdery mildew, field test; conditions: for D.D.S (Degree of disease severity), Av / P.V. (Preventive value), Av / n/N × 100, Av: average of plots
Protocol: Test plants (cucumber, variety: Ancor) were grown until approximately 10 leaves. […] After the first spraying of the dilution, the test plants were inoculated with condia of suspension of Sphaerotheca fuliginea. The disease severity of the test plants was observed 7 days after the last spraying, and the effectiveness of test sample was judged. Tests were carried out in triplicate using 8 plants per each test. The disease severity of the test plants was judged in accordance with the following criteria. The preventive value was calculated from the degree of disease severity.
as §2

[10] = tested on: Pseudoperonospora cubensis; assay: cucumber downy mildew, pot test: preventive effect; conditions: for Preventive value (3 DAS): inoculated 3 days after spraying; for Preventive value (5 DAS): inoculated 5 days after spraying
Protocol: Test plants (cucumber, variety: Sagami hanpaku) were seeded and grown until the one true leaf stage. D-Tagatose was diluted to 5%, 1% and 0.5% with distilled water and then 10 ml of the dilution was sprayed on the test plant. Three or five days after spraying, a sporangium suspension of Pseudoperonospora cubensis containing 1×10^3/ml were inoculated by spraying on test plants and then the plants were put for 16 hours in an incubation chamber (20° C. to 23° C.) to promote disease. Seven days after inoculation the disease severity of the test plants was observed and the effectiveness of test sample was judged. Tests were carried out using two plants for each test set and the disease severity of the test plants was judged in accordance with the following criteria. The preventive value was calculated from the degree of the disease severity.
as §1
Preventive value=100{1−(n/N)} N=disease severity of untreated leaf, n=disease severity of the tested leaf

[11] = 10000 ppm, per plot (1-3), 50 leaves
[12] = 50000 ppm, per plot (1-3), 50 leaves
[13] = 10000 ppm, per plot (1, 2), 50 leaves
[14] = 50000 ppm, per plot (1, 2), 50 leaves
[15] = 50000 ppm spray, listed as D-tagatose

Structure (SMILES): O=C(CO)[C@@H](O)[C@@H](O)[C@H](O)CO [D-Tagatose, D-tagatose]
- pest or weed control at 10000 ppm (Puccinia recondita): 17%
- pest or weed control at 50000 ppm (Puccinia recondita): 50%
- Preventive value (control value) ([1]; 5000 ppm sprayed after inoculation (curative)): 22.5
- Preventive value (control value) ([1]; 10000 ppm sprayed after inoculation (curative)): 91.7
- Preventive value (control value) ([1]; 50000 ppm sprayed after inoculation (curative)): 100.0
- Preventive value (control value) ([1]; 50000 ppm sprayed after inoculation (curative), listed as D-tagatose): 100
- effectiveness in words ([1]; curative test condition): effective enough
- D.D.S (Degree of disease severity), Av ([2]; 10000 ppm): 2.25
- P.V. (Preventive value), Av ([2]; 10000 ppm): 96.5
- n/N × 100, Av ([2]; 10000 ppm): 9.0
- D.D.S (Degree of disease severity) ([2]; 10000 ppm): 3.00 and 1.50
- P.V. (Preventive value) ([2]; 10000 ppm): 95.4 and 97.7
- n/N × 100 ([2]; 10000 ppm): 12.0 and 6.0
- Disease severity 0: number of leaves ([2]; 10000 ppm): 44 and 47
- Disease severity 1: number of leaves ([2]; 10000 ppm): 6 and 3
- Disease severity 2: number of leaves ([2]; 10000 ppm): 0
- Disease severity 3: number of leaves ([2]; 10000 ppm): 0
- Disease severity 4: number of leaves ([2]; 10000 ppm): 0
- D.D.S (Degree of disease severity), Av ([2]; 50000 ppm): 2.50
- P.V. (Preventive value), Av ([2]; 50000 ppm): 96.1
- n/N × 100, Av ([2]; 50000 ppm): 10.0
- D.D.S (Degree of disease severity) ([2]; 50000 ppm): 3.00 and 2.00
- P.V. (Preventive value) ([2]; 50000 ppm): 95.4 and 96.9
- n/N × 100 ([2]; 50000 ppm): 12.0 and 8.0
- Disease severity 0: number of leaves ([2]; 50000 ppm): 44 and 46
- Disease severity 1: number of leaves ([2]; 50000 ppm): 6 and 4
- Disease severity 2: number of leaves ([2]; 50000 ppm): 0
- Disease severity 3: number of leaves ([2]; 50000 ppm): 0
- Disease severity 4: number of leaves ([2]; 50000 ppm): 0
- effectiveness in words ([2]; field test): effective enough
- Preventive value (Phytophthora infestans [3]; 50000 ppm spray): 28.3
- Preventive value (Phytophthora infestans [3]; 100000 ppm spray): 58.3
- effectiveness in words (Phytophthora infestans [3]; foliar spray): effective enough
- Preventive value (Pythium aphanidermatum; 10000 ppm): 70.0
- Preventive value (Pythium aphanidermatum; 50000 ppm): 92.5
- effectiveness in words (Pythium aphanidermatum; soil drench): effective enough
- pest or weed control at 5000 ppm (Phytophthora infestans [4]): 0%
- pest or weed control at 10000 ppm (Phytophthora infestans [4]): 40%
- pest or weed control at 5000 ppm [5]: 40%
- pest or weed control at 10000 ppm [5]: 83%
- Preventive value ([6]; 1000 ppm): 0.0
- Preventive value ([6]; 5000 ppm): 8.3
- Preventive value ([6]; 10000 ppm): 98.3
- Preventive value ([6]; 50000 ppm): 100.0
- Preventive value (Sphaerotheca fuligine; 10000 ppm spray): 20.0
- Preventive value (Sphaerotheca fuligine; 50000 ppm spray): 87.5
- effectiveness in words (Sphaerotheca fuligine; foliar spray): effective enough
- pest or weed control at 10000 ppm (Pyricularia oryze): 0%
- pest or weed control at 50000 ppm (Pyricularia oryze): 50%
- pest or weed control at 10000 ppm (Botrytis cinerea): 0%
- pest or weed control at 50000 ppm (Botrytis cinerea): 17%
- pest or weed control at 5000 ppm [7]: 50%
- pest or weed control at 10000 ppm [7]: 73%
- pest or weed control at 5000 ppm [8]: 33%
- pest or weed control at 10000 ppm [8]: 73%
- Preventive value (Pythium glaminicola; 10000 ppm): 77.3
- Preventive value (Pythium glaminicola; 50000 ppm): 96.2
- effectiveness in words (Pythium glaminicola; soil drench): effective enough
- D.D.S (Degree of disease severity), Av (Plasmopara viticola; 10000 ppm): 12.75
- P.V. (Preventive value), Av (Plasmopara viticola; 10000 ppm): 71.7
- n/N × 100, Av (Plasmopara viticola; 10000 ppm): 31.0
- D.D.S (Degree of disease severity) (Plasmopara viticola; 10000 ppm, per plot (1-3)): 14.50 and 18.50 and 11.00
- P.V. (Preventive value) (Plasmopara viticola; 10000 ppm, per plot (1-3)): 72.0 and 64.3 and 78.7
- n/N × 100 (Plasmopara viticola; 10000 ppm, per plot (1-3)): 36.0 and 32.0 and 26.0
- Disease severity 0: number of leaves (Plasmopara viticola; [11]): 32 and 34 and 37
- Disease severity 1: number of leaves (Plasmopara viticola; [11]): 8 and 4
- D.D.S (Degree of disease severity), Av (Plasmopara viticola; 50000 ppm): 0.00
- P.V. (Preventive value), Av (Plasmopara viticola; 50000 ppm): 99.4
- n/N × 100, Av (Plasmopara viticola; 50000 ppm): 0.0
- P.V. (Preventive value) (Plasmopara viticola; 50000 ppm, per plot (1-3)): 100.0 and 93.1
- Disease severity 0: number of leaves (Plasmopara viticola; [12]): 50 and 48
- Disease severity 2: number of leaves (Plasmopara viticola; [12]): 0
- Disease severity 3: number of leaves (Plasmopara viticola; [12]): 0
- Disease severity 4: number of leaves (Plasmopara viticola; [12]): 0
- effectiveness in words (Plasmopara viticola; field test): effective enough
- Preventive value ([9]; 10000 ppm): 95.0
- Preventive value ([9]; 10000 ppm, listed as D-tagatose): 95
- Preventive value ([9]; 50000 ppm): 100.0
- Preventive value ([9]; 50000 ppm, listed as D-tagatose): 100
- effectiveness in words ([9]; drench treatment): effective enough
- D.D.S (Degree of disease severity), Av (Sphaerotheca fuliginea; 10000 ppm): 5.75
- P.V. (Preventive value), Av (Sphaerotheca fuliginea; 10000 ppm): 94.0
- n/N × 100, Av (Sphaerotheca fuliginea; 10000 ppm): 15.0
- D.D.S (Degree of disease severity) (Sphaerotheca fuliginea; 10000 ppm, per plot (1, 2)): 8.00
- P.V. (Preventive value) (Sphaerotheca fuliginea; 10000 ppm, per plot (1, 2)): 96.4 and 91.7
- Disease severity 0: number of leaves (Sphaerotheca fuliginea; [13]): 46 and 39
- Disease severity 3: number of leaves (Sphaerotheca fuliginea; [13]): 1
- Disease severity 4: number of leaves (Sphaerotheca fuliginea; [13]): 0
- D.D.S (Degree of disease severity), Av (Sphaerotheca fuliginea; 50000 ppm): 1.25
- P.V. (Preventive value), Av (Sphaerotheca fuliginea; 50000 ppm): 98.7
- n/N × 100, Av (Sphaerotheca fuliginea; 50000 ppm): 5.0
- D.D.S (Degree of disease severity) (Sphaerotheca fuliginea; 50000 ppm, per plot (1, 2)): 1.00 and 1.50
- P.V. (Preventive value) (Sphaerotheca fuliginea; 50000 ppm, per plot (1, 2)): 99.0 and 98.4
- n/N × 100 (Sphaerotheca fuliginea; 50000 ppm, per plot (1, 2)): 4.0 and 6.0
- Disease severity 0: number of leaves (Sphaerotheca fuliginea; [14]): 48 and 47
- Disease severity 1: number of leaves (Sphaerotheca fuliginea; [14]): 2 and 3
- Disease severity 2: number of leaves (Sphaerotheca fuliginea; [14]): 0
- Disease severity 3: number of leaves (Sphaerotheca fuliginea; [14]): 0
- Disease severity 4: number of leaves (Sphaerotheca fuliginea; [14]): 0
- effectiveness in words (Sphaerotheca fuliginea; field test): effective enough
- Preventive value (3 DAS) ([10]; 5000 ppm spray): 49.2
- Preventive value (5 DAS) ([10]; 5000 ppm spray): 37.5
- Preventive value (3 DAS) ([10]; 10000 ppm spray): 99.2
- Preventive value (5 DAS) ([10]; 10000 ppm spray): 90.0
- Preventive value (5 DAS) ([10]; 10000 ppm spray, listed as D-tagatose): 90
- Preventive value (3 DAS) ([10]; 50000 ppm spray): 100.0
- Preventive value (3 DAS) [10, 15]: 100
- Preventive value (5 DAS) ([10]; 50000 ppm spray): 100.0
- Preventive value (5 DAS) [10, 15]: 100

From patent US20110281807A1, “PLANT DISEASE CONTROL AGENT COMPRISING D-TAGATOSE AS ACTIVE INGREDIENT, AND PLANT DISEASE CONTROL METHOD” (NATIONAL UNIVERSITY CORPORATION KAGAWA UNIVERSITY, priority 2008, published 2011)
